# Experimental data published in paper PMC7143535, “Synthesis, Pharmacological and Structural Characterization of Novel Conopressins from Conus miliaris” (Marine Drugs, 2020).
# Where two headings read alike, the source gives them in different places. Residues, ends and D or L forms follow the SMILES beside them.
# Experiments:
# [1] = molecular target: T1, zebrafish oxytocin/isotocin receptor (ZF oxy/isoR) (Danio rerio, UniProt E4W699); test: cell-based; format: cell-based
# T1 construct: host or cells: COS-1
# T1 sequence (E4W699 1-388): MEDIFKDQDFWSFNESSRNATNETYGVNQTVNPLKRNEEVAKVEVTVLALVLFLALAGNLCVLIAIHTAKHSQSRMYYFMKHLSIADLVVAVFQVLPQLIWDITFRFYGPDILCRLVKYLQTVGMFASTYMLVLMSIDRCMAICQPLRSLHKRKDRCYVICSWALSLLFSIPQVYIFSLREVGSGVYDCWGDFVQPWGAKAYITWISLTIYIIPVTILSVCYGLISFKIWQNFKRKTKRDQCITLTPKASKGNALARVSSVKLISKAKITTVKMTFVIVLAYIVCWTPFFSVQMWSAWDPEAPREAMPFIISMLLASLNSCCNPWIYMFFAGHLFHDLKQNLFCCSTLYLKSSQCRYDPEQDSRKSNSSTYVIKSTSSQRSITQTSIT
# [2] = molecular target: T2, human vasopressin2 receptor (hV2R) (Homo sapiens, UniProt P30518); test: cell-based
# T2 construct: host or cells: COS-1
# [3] = molecular target: T3, human vasopressin-1b receptor (hV1bR) (Homo sapiens, UniProt P47901); test: cell-based; format: cell-based
# T3 construct: host or cells: COS-1
# T3 sequence (P47901 1-424): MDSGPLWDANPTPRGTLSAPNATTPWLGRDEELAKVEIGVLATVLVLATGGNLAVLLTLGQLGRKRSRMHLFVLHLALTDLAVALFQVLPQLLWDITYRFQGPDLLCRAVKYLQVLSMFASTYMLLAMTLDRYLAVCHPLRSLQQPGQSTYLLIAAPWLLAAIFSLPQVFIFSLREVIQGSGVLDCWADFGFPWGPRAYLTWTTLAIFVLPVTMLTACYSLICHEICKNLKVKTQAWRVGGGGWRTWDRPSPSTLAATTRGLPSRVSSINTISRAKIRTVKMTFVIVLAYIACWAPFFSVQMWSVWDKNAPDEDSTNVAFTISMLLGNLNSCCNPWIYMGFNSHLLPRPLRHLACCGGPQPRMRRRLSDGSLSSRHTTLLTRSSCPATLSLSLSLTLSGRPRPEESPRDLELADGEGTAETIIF
# [4] = molecular target: zebrafish vasopressin1-a1 receptor (ZF V1a1R); format: cell-based, zebrafish (Danio rerio)
# [5] = molecular target: T4, human vasopressin-1a receptor (hV1aR) (Homo sapiens, UniProt P37288); test: cell-based
# T4 construct: host or cells: COS-1
# [6] = tested on: zebrafish vasopressin2 receptor (ZF V2R); format: cell-based, zebrafish (Danio rerio)
# [7] = molecular target: T5, human oxytocin receptor (hOTR) (Homo sapiens, UniProt P30559); test: cell-based; format: cell-based
# T5 construct: host or cells: COS-1
# T5 sequence (P30559 1-389): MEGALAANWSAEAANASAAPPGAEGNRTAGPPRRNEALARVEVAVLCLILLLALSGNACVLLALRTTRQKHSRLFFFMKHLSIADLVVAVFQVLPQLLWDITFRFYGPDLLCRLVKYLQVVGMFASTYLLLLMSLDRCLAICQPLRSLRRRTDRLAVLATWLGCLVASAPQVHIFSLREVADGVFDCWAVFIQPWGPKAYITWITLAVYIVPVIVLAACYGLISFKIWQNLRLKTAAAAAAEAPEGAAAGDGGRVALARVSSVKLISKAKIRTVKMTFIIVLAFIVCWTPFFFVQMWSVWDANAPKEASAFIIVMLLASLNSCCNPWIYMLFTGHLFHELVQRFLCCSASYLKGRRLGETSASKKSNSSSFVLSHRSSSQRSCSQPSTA
# [8] = molecular target: zebrafish vasopressin1-a2 receptor (ZF V1a2R); format: cell-based, zebrafish (Danio rerio)
# T2 sequence (P30518 whole entry): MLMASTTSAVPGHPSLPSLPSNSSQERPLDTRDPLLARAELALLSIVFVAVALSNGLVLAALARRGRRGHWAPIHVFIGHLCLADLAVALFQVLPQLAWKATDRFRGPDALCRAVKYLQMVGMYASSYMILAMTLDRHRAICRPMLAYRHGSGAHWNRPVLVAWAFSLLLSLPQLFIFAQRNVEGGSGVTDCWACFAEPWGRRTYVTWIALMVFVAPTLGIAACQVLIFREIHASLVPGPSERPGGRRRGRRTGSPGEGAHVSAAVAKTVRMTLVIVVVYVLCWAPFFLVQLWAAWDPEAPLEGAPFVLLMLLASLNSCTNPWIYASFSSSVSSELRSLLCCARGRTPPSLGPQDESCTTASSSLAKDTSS
# T4 sequence (P37288 whole entry): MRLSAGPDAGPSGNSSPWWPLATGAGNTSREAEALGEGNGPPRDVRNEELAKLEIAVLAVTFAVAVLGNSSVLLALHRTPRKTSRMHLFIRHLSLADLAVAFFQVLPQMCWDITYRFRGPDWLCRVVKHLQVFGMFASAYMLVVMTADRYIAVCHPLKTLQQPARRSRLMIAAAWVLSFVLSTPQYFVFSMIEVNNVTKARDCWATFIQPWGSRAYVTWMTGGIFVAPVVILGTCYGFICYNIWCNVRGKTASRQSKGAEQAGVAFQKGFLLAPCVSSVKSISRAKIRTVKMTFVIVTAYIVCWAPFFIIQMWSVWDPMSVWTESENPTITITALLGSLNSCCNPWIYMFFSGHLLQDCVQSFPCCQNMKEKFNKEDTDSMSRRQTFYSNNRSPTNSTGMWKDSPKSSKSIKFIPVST
smiles,measurement,setting,value
"CC[C@H](C)[C@@H]1NC(=O)[C@H](Cc2ccc(O)cc2)NC(=O)[C@@H](N)CSSC[C@@H](C(=O)N2CCC[C@H]2C(=O)N[C@@H](CCCNC(=N)N)C(=O)NCC(N)=O)NC(=O)[C@H](CC(N)=O)NC(=O)[C@H](CCC(N)=O)NC1=O [Vasotocin, vasotocin] (HELM PEPTIDE1{C.Y.I.Q.N.C.P.R.G.[am]}$PEPTIDE1,PEPTIDE1,1:R3-6:R3$$$V2.0; N-terminus assumed)",EC50,[1],0.85 nM
same,Selectivity ZF oxy,[1],hV2R (x28945.5) > ZF V1a1R (x38.8) > ZF oxy (x18.7) > hOTR(x9.8) > ZF V1a2R (x5.7) > hV1bR (x3.7) > ZF V2R (x3.1) > hV1aR
same,EC50,[2],0.5 nM
same,Selectivity hV2R,[2],hV2R (x28945.5) > ZF V1a1R (x38.8) > ZF oxy (x18.7) > hOTR(x9.8) > ZF V1a2R (x5.7) > hV1bR (x3.7) > ZF V2R (x3.1) > hV1aR
same,fold more potent on hV2R than on ZF V2R,[2],"~10,000 fold"
same,EC50,[3],4.26 nM
same,Selectivity hV1bR,[3],hV2R (x28945.5) > ZF V1a1R (x38.8) > ZF oxy (x18.7) > hOTR(x9.8) > ZF V1a2R (x5.7) > hV1bR (x3.7) > ZF V2R (x3.1) > hV1aR
same,EC50,[4],0.41 nM
same,Selectivity ZF V1a1R,[4],hV2R (x28945.5) > ZF V1a1R (x38.8) > ZF oxy (x18.7) > hOTR(x9.8) > ZF V1a2R (x5.7) > hV1bR (x3.7) > ZF V2R (x3.1) > hV1aR
same,EC50,[5],15.9 nM
same,Selectivity ZF V2R,[6],hV2R (x28945.5) > ZF V1a1R (x38.8) > ZF oxy (x18.7) > hOTR(x9.8) > ZF V1a2R (x5.7) > hV1bR (x3.7) > ZF V2R (x3.1) > hV1aR
same,EC50,[6]; read-out: EC50 / affinity at ZF V2R,5000 nM
same,EC50,[6]; read-out: Mean EC50 ZF V2R,5.07 nM
same,EC50,[7],1.62 nM
same,Selectivity hOTR,[7],hV2R (x28945.5) > ZF V1a1R (x38.8) > ZF oxy (x18.7) > hOTR(x9.8) > ZF V1a2R (x5.7) > hV1bR (x3.7) > ZF V2R (x3.1) > hV1aR
same,EC50,[8],2.77 nM
same,Selectivity ZF V1a2R,[8],hV2R (x28945.5) > ZF V1a1R (x38.8) > ZF oxy (x18.7) > hOTR(x9.8) > ZF V1a2R (x5.7) > hV1bR (x3.7) > ZF V2R (x3.1) > hV1aR
